# Structures can show the parent of a compound that is named as a salt.
# How the values were obtained:
# Wistar fatty rats [1] = assay: Effect on ketosis caused by a biguanide (metformin) in Wistar fatty rats (total ketone bodies in plasma); format: in vivo, rat; conditions: for concentration of total ketone bodies, higher as compared with Group A (without metformin and pioglitazone hydrochloride) / concentration of total ketone bodies in plasma: metformin 300 mg/kg/day; for concentration of total ketone bodies, higher as compared with Group A (without metformin and pioglitazone hydrochloride): difference of means; for concentration of total ketone bodies in plasma: Wistar fatty rats, pioglitazone hydrochloride 1 mg/kg/day, mean ± SD, n=6
# From the text: 3-Hydroxybutyric acid (3-HB) in samples is specifically oxidized by 3-hydroxybutyric acid dehydrogenase (3-HBDH) in the presence of an oxidized form of β-thionicotinamide adenine dinucleotide (thio-NAD) to produce acetoacetic acid (AcAc) and a reduced form of β-thionicotinamide adenine dinucleotide (thio-NADH). […] The concentration of total ketone bodies which is the sum of 3-HB and AcAc in samples can be calculated by determining a production speed of thio-NADH thus obtained.
# Effects of an insulin sensitizer (pioglitazone hydrochloride) on ketosis caused by a biguanide (metformin) in Wistar fatty rats, NIDDM models, were studied.
# First, Wistar fatty rats (31 week-old, male) were divided into three groups, namely Groups A, B and C, each consisting of 6 rats. […] After administration, blood was collected from the tail vein of the Wistar fatty rats, and total ketone bodies in the plasma were determined in the same manner as in Experimental Example 1.
# In the table, W. fatty. Met and Pio mean Wistar fatty rat, metformin and pioglitazone hydrochloride, respectively. Figures in the table represent means ± standard deviation (number of subjects=6).
# The concentration of total ketone bodies in plasma of Wistar fatty rats was determined in the same manner as in Experimental Example 2 except that the administration period was changed from 14 days to 7 days.
# Wistar fatty rats [2] = assay: Effect on diabetic ketosis in Wistar fatty rats (total ketone bodies in plasma); format: in vivo, rat; conditions: for concentration of total ketone bodies in plasma: Wistar fatty rats (31 week-old, male), pioglitazone hydrochloride 1 mg/kg body weight/day orally for 14 days, mean ± SD, n=6, control without Pio 170.23 ± 22.33 μM
# From the text: For instance, diabetic ketosis is observed in a Wistar fatty rat which is an animal model of non-insulin dependent (type 2) diabetes mellitus. Therefore, a ketosis improving action of a test compound can be evaluated by comparing concentration of total ketone bodies in plasma between Wistar fatty rat groups with administration of a test compound (Experimental group) and Wistar fatty rat groups without administration of a test compound (Control group). […] 3-Hydroxybutyric acid (3-HB) in samples is specifically oxidized by 3-hydroxybutyric acid dehydrogenase (3-HBDH) in the presence of an oxidized form of β-thionicotinamide adenine dinucleotide (thio-NAD) to produce acetoacetic acid (AcAc) and a reduced form of β-thionicotinamide adenine dinucleotide (thio-NADH). […] Effects of an insulin sensitizer (pioglitazone hydrochloride) on diabetic ketosis in Wistar fatty rats, animal models of non-insulin dependent diabetes mellitus (NIDDM), were studied. First, Wistar fatty rats (31 week-old, male) were divided into two groups each consisting of 6 rats. […] After administration, blood was collected from the tail vein of the Wistar fatty rats, and total ketone bodies in the plasma were enzymatically determined by using AutoWako total ketone bodies (Trade name)(Wako Pure Chemical Industries, Ltd., Japan) and Hitachi 7070 Autoanalyzing machine. Wistar lean rats (6 rats), animal models of non diabetes mellitus (normal), were orally administered with a 0.5 (w/v) % aqueous methylcellulose solution for 14 days. Then, total ketone bodies in the plasma were determined in the same manner as above. In the table, W, lean, W. fatty and Pio mean Wistar lean rat, Wistar fatty rat and pioglitazone hydrochloride, respectively. Figures in the table represent means ± standard deviation (number of subjects=6).
Structure (SMILES),"concentration of total ketone bodies, higher as compared with Group A (without metformin and pioglitazone hydrochloride) (Wistar fatty rats [1]; 7 days)","concentration of total ketone bodies, higher as compared with Group A (without metformin and pioglitazone hydrochloride) (Wistar fatty rats [1]; 14 days)","concentration of total ketone bodies in plasma (Wistar fatty rats [1]; 7 days orally, Group A control 160.37 ± 14.00 μM)","concentration of total ketone bodies in plasma (Wistar fatty rats [1]; 7 days orally, Group A control 160.37 ± 14.00 μM, listed as Met)","concentration of total ketone bodies in plasma (Wistar fatty rats [1]; 14 days orally, Group A control 170.23 ± 22.33 μM)","concentration of total ketone bodies in plasma (Wistar fatty rats [1]; 14 days orally, Group A control 170.23 ± 22.33 μM, listed as Met)",concentration of total ketone bodies in plasma (Wistar fatty rats [2]),concentration of total ketone bodies in plasma (Wistar fatty rats [2]; listed as Pio),"effect on diabetic ketosis (conclusion in words) (Wistar fatty rats [2]; Wistar fatty rats, 1 mg/kg/day orally, 14 days)","concentration of total ketone bodies, lower as compared with the group without pioglitazone hydrochloride (Wistar fatty rats [2]; Wistar fatty rats, 1 mg/kg/day orally, 14 days, difference of means)",effect on ketosis caused by a biguanide (conclusion in words) (Wistar fatty rats [1]; Experimental Examples 2 and 3 (14 and 7 days))
CN(C)C(=N)N=C(N)N [metformin],38.86 µM,11.77 µM,199.23 ± 55.69 µM,199.23 ± 55.69 µM,182.00 ± 22.50 µM,182.00 ± 22.50 µM,–,–,–,–,–
"CCc1ccc(CCOc2ccc(CC3SC(=O)NC3=O)cc2)nc1 (centres unmarked) [pioglitazone hydrochloride, 5-[4-[2-(5-ethyl-2-pyridyl)ethoxy]benzyl]-2,4-thiazolidinedione]",–,–,–,–,–,–,125.72 ± 12.49 µM,125.72 ± 12.49 µM,improves diabetic ketosis,44.51 µM,improves ketosis caused by a biguanide (metformin)
